This note sets out measurements from EP2792683A1, “Compounds potentiating the activity of antifungal drugs” (Fundacion MEDINA. Centro de Excelencia en Investigacion de …, priority 2013, dated 2014).

The test system of this assay is C. albicans. The assay is described as follows: Cell viability by membrane integrity, propidium iodide (PI) flow cytometry. It is filed as cell-based. The procedure: • Figure 1. Checkerboard assay showing the potentiation of the antifungal caspofungin by the compound MDN-0018. In this assay, dose response curves of the compound MDN-0018 (8 to 0.015 µg/mL) are performed from left to right and dose response curves of caspofungin (0.24 to 0.018 µg/mL) are performed from top to bottom. Other known antifungal compounds (echinocandins, azoles and polyenes) were tested, obtaining a similar checkboard. […] Determination of the potentiation of caspofungin activity by the compound MDN-0018 against A. fumigatus. Study of the optimum concentration of the compounds MDN-0018 and caspofungin where maximum enhancement of caspofungin is reached is shown in Figure 2.1. In addition, the graphic representation of curves, in duplicate, of the caspofungin potentiated by the compound MDN-0018 is shown in Figure 2.1. Each curve represents a curve of caspofungin from 0.24 to 0.018 µg/mL ([…]) with set concentrations of the MDN-0018 compound from 8 to 0.015 µg/mL (8.86 to 0.017 µM). • Figure 3. Flow cytometry experiments to determine cellular viability by changes in membrane permeability using propidium iodide (PI) as probe. […]
Cell viability was determined by changes in membrane permeability, live cells with intact membranes are distinguished by their ability to exclude dyes that easily penetrate dead or damaged cells. […]

For the compound `CC[C@H](C)C[C@H](C)CCCCCCCCC(=O)N[C@H]1C[C@@H](O)[C@@H](NCCN)NC(=O)[C@@H]2[C@@H](O)CCN2C(=O)[C@H]([C@H](O)CCN)NC(=O)[C@H]([C@H](O)[C@@H](O)c2ccc(O)cc2)NC(=O)[C@@H]2C[C@@H](O)CN2C(=O)[C@H]([C@@H](C)O)NC1=O` [caspofungin], the “cellular viability by changes in membrane permeability (PI), flow cytometry profile” value was “damaged population” (1 µg/mL of caspofungin) and “same profile as the non treated cells” (sublethal dose of caspofungin (0.015 µg/mL)).
